# According to patent US5556744A, “Methods and compositions for diagnosing and treating certain HIV infected patients” (The Trustees of the University of Pennsylvania, priority 1994, dated 1996):
# Legend:
# [1] = tested on: maternal HIV+ sera (antibodies); assay: RIA / ELISA binding of maternal HIV+ sera to gp120 and gp41 peptides (Example 3); parameters: species or system human
# Method in brief: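 Peptides were coated at 10 μg/ml in carbonate buffer pH 9.6 and blocked with 1% BSA. Sera at 1:50 and 1:500 were incubated overnight at 4°C and detected with ¹²⁵I anti-human IgG (RIA) or HRP/TMB at OD450 (ELISA). Specific binding was taken as peptide minus no-peptide wells, scored as a ratio to normal human serum.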
# [2] = tested on: maternal sera (antibodies); assay: ELISA peptide-binding of maternal sera (Example 6); parameters: species or system human; conditions: for Number of Non-Transmitters which bound to peptide / Percent of Non-Transmitters which bound to peptide: N = 12; for Number of Transmitters which bound to peptide / Percent of Transmitters which bound to peptide: N = 4
# Method in brief: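 Third-trimester maternal sera, from HIV-1 transmitting and non-transmitting mothers, were tested by ELISA against ~16-residue peptides spanning HIV-1 external and transmembrane glycoproteins. Each serum was run with at least 40 peptides, and values are the percentage of sera binding each peptide.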
# [3] = Serum No. 1, Non-Transmission Group
# [4] = Serum No. 2, Non-Transmission Group
# [5] = Serum No. 3, Non-Transmission Group
# [6] = Serum No. 4, Transmission Group
# [7] = Serum No. 5, Transmission Group
# [8] = Serum No. 6, Non-Transmission Group
# [9] = Serum No. 7, Non-Transmission Group
# [10] = Serum No. 8, Non-Transmission Group
# [11] = Serum No. 9, Non-Transmission Group
# [12] = Serum No. 10, Transmission Group
# [13] = Serum No. 11, Non-Transmission Group
# [14] = Serum No. 12, Non-Transmission Group
# [15] = Serum No. 13, Transmission Group
# [16] = Serum No. 14, Transmission Group
# [17] = Serum No. 15, Transmission Group
# [18] = Serum No. 16, Non-Transmission Group
# [19] = Serum No. 17, Non-Transmission Group
# [20] = Serum No. 18, Non-Transmission Group
# [21] = Serum No. 19, Transmission Group
# [22] = Serum No. 20, Non-Transmission Group
Sequence,"Binding of maternal HIV+ serum to peptide (sera/NHS ratio) [1, 3]","Binding of maternal HIV+ serum to peptide (sera/NHS ratio) [1, 4]","Binding of maternal HIV+ serum to peptide (sera/NHS ratio) [1, 5]","Binding of maternal HIV+ serum to peptide (sera/NHS ratio) [1, 6]","Binding of maternal HIV+ serum to peptide (sera/NHS ratio) [1, 7]","Binding of maternal HIV+ serum to peptide (sera/NHS ratio) [1, 8]","Binding of maternal HIV+ serum to peptide (sera/NHS ratio) [1, 9]","Binding of maternal HIV+ serum to peptide (sera/NHS ratio) [1, 10]","Binding of maternal HIV+ serum to peptide (sera/NHS ratio) [1, 11]","Binding of maternal HIV+ serum to peptide (sera/NHS ratio) [1, 12]","Binding of maternal HIV+ serum to peptide (sera/NHS ratio) [1, 13]","Binding of maternal HIV+ serum to peptide (sera/NHS ratio) [1, 14]","Binding of maternal HIV+ serum to peptide (sera/NHS ratio) [1, 15]","Binding of maternal HIV+ serum to peptide (sera/NHS ratio) [1, 16]","Binding of maternal HIV+ serum to peptide (sera/NHS ratio) [1, 17]","Binding of maternal HIV+ serum to peptide (sera/NHS ratio) [1, 18]","Binding of maternal HIV+ serum to peptide (sera/NHS ratio) [1, 19]","Binding of maternal HIV+ serum to peptide (sera/NHS ratio) [1, 20]","Binding of maternal HIV+ serum to peptide (sera/NHS ratio) [1, 21]","Binding of maternal HIV+ serum to peptide (sera/NHS ratio) [1, 22]",other results
RKSIGIQRGPGR [Peptide 1029-33],+ (which value is between 2 to 3),++ (which value is greater than 3),+ (which value is between 2 to 3),"- (specific OD450 or cpm of sera sample binding to peptide divided by the specific OD450 or cpm of NHS sample binding to peptide, which value is less than 2)",+ (which value is between 2 to 3),"- (specific OD450 or cpm of sera sample binding to peptide divided by the specific OD450 or cpm of NHS sample binding to peptide, which value is less than 2)","- (specific OD450 or cpm of sera sample binding to peptide divided by the specific OD450 or cpm of NHS sample binding to peptide, which value is less than 2)","- (specific OD450 or cpm of sera sample binding to peptide divided by the specific OD450 or cpm of NHS sample binding to peptide, which value is less than 2)","- (specific OD450 or cpm of sera sample binding to peptide divided by the specific OD450 or cpm of NHS sample binding to peptide, which value is less than 2)","- (specific OD450 or cpm of sera sample binding to peptide divided by the specific OD450 or cpm of NHS sample binding to peptide, which value is less than 2)",+ (which value is between 2 to 3),+ (which value is between 2 to 3),+ (which value is between 2 to 3),"- (specific OD450 or cpm of sera sample binding to peptide divided by the specific OD450 or cpm of NHS sample binding to peptide, which value is less than 2)",+ (which value is between 2 to 3),"- (specific OD450 or cpm of sera sample binding to peptide divided by the specific OD450 or cpm of NHS sample binding to peptide, which value is less than 2)",+ (which value is between 2 to 3),"- (specific OD450 or cpm of sera sample binding to peptide divided by the specific OD450 or cpm of NHS sample binding to peptide, which value is less than 2)","- (specific OD450 or cpm of sera sample binding to peptide divided by the specific OD450 or cpm of NHS sample binding to peptide, which value is less than 2)",++ (which value is greater than 3),"Percentage of sera samples demonstrating binding to peptide, non-transmitter ([1]; Non-transmitter group, n = 13): 53.8%; Percentage of sera samples demonstrating binding to peptide, transmitter ([1]; Transmitter / transmission group, n = 7): 42.9%; Percent of the maternal serum samples that bound to the peptide ([1]; all 20 samples): 50%; Number of Non-Transmitters which bound to peptide [2]: 0; Percent of Non-Transmitters which bound to peptide [2]: 0%; Number of Transmitters which bound to peptide [2]: 0; Percent of Transmitters which bound to peptide [2]: 0%"
SSGRMIMEKGEIKNCSFNIST [Peptide 59],"- (specific OD450 or cpm of sera sample binding to peptide divided by the specific OD450 or cpm of NHS sample binding to peptide, which value is less than 2)","- (specific OD450 or cpm of sera sample binding to peptide divided by the specific OD450 or cpm of NHS sample binding to peptide, which value is less than 2)","- (specific OD450 or cpm of sera sample binding to peptide divided by the specific OD450 or cpm of NHS sample binding to peptide, which value is less than 2)","- (specific OD450 or cpm of sera sample binding to peptide divided by the specific OD450 or cpm of NHS sample binding to peptide, which value is less than 2)","- (specific OD450 or cpm of sera sample binding to peptide divided by the specific OD450 or cpm of NHS sample binding to peptide, which value is less than 2)","- (specific OD450 or cpm of sera sample binding to peptide divided by the specific OD450 or cpm of NHS sample binding to peptide, which value is less than 2)","- (specific OD450 or cpm of sera sample binding to peptide divided by the specific OD450 or cpm of NHS sample binding to peptide, which value is less than 2)","- (specific OD450 or cpm of sera sample binding to peptide divided by the specific OD450 or cpm of NHS sample binding to peptide, which value is less than 2)","- (specific OD450 or cpm of sera sample binding to peptide divided by the specific OD450 or cpm of NHS sample binding to peptide, which value is less than 2)","- (specific OD450 or cpm of sera sample binding to peptide divided by the specific OD450 or cpm of NHS sample binding to peptide, which value is less than 2)","- (specific OD450 or cpm of sera sample binding to peptide divided by the specific OD450 or cpm of NHS sample binding to peptide, which value is less than 2)","- (specific OD450 or cpm of sera sample binding to peptide divided by the specific OD450 or cpm of NHS sample binding to peptide, which value is less than 2)","- (specific OD450 or cpm of sera sample binding to peptide divided by the specific OD450 or cpm of NHS sample binding to peptide, which value is less than 2)","- (specific OD450 or cpm of sera sample binding to peptide divided by the specific OD450 or cpm of NHS sample binding to peptide, which value is less than 2)","- (specific OD450 or cpm of sera sample binding to peptide divided by the specific OD450 or cpm of NHS sample binding to peptide, which value is less than 2)","- (specific OD450 or cpm of sera sample binding to peptide divided by the specific OD450 or cpm of NHS sample binding to peptide, which value is less than 2)","- (specific OD450 or cpm of sera sample binding to peptide divided by the specific OD450 or cpm of NHS sample binding to peptide, which value is less than 2)","- (specific OD450 or cpm of sera sample binding to peptide divided by the specific OD450 or cpm of NHS sample binding to peptide, which value is less than 2)","- (specific OD450 or cpm of sera sample binding to peptide divided by the specific OD450 or cpm of NHS sample binding to peptide, which value is less than 2)","- (specific OD450 or cpm of sera sample binding to peptide divided by the specific OD450 or cpm of NHS sample binding to peptide, which value is less than 2)",Binding of maternal sera to peptide (in words) ([1]; Example 3): No binding; Number of Non-Transmitters which bound to peptide [2]: 0; Percent of Non-Transmitters which bound to peptide [2]: 0%; Number of Transmitters which bound to peptide [2]: 0; Percent of Transmitters which bound to peptide [2]: 0%
